Test results taken from US8580785B2, “Insecticides” (Syngenta Crop Protection LLC, priority 2005, dated 2013).

Columns and labels:
Plutella xylostella = experiment: Activity against Plutella xylostella; format: in vivo; conditions: 72 h, 400 ppm spray on young cabbage plants, 3rd instar caterpillars, 3 days, read-out: percentage reduction in the population and in the feeding damage (% activity)
Experimental: (§1) Young cabbage plants are sprayed with an aqueous emulsion spray mixture comprising 400 ppm of active ingredient and, after the spray coating has dried on, populated with 10 caterpillars (3rd instar) of Plutella xylostella and introduced into a plastic container. 3 days later, the percentage reduction in the population and in the feeding damage (% activity) are determined by comparing the number of dead caterpillars and the feeding damage between the treated and untreated plants.

Spodoptera littoralis = experiment: Activity against Spodoptera littoralis; format: in vivo; conditions: 72 h, 400 ppm spray on young soya plants, 1st instar caterpillars, 3 days, read-out: percentage reduction in the population and in the feeding damage (% activity)
Experimental: as §1, with “soya” for “cabbage”, “(1st” for “(3rd”, “Spodoptera littoralis” for “Plutella xylostella”

[1] = tested on: Frankliniella occidentalis; experiment: Activity against Frankliniella occidentalis; format: in vivo; conditions: bean leaf discs (6 days) or bean plants (14 days); mixed population
Experimental: Bean leaf discs on agar in petri dishes or bean plants in a spray chamber are treated with diluted test solutions. After drying leaf discs are cut and placed in plastic cups on the surface of an agar layer and infested with mixed population. 6 days (leaf discs) or 14 days (plants) after the infestation, samples are checked for reduction of treated population and compared to the non treated population. In this test, compounds listed in Table P above show good activity. In particular compound T7.1.7 has an activity of over 80%.

Heliothis virescens = experiment: Activity against Heliothis virescens (foliar application); format: in vivo; conditions: 144 h, 400 ppm spray on young soya plants, 1st instar caterpillars, 6 days, read-out: percentage reduction in the population and in the feeding damage (% activity)
Experimental: as §1, with “soya” for “cabbage”, “(1st” for “(3rd”, “Heliothis virescens” for “Plutella xylostella”, “6” for “3”

Diabrotica balteata = experiment: Activity against Diabrotica balteata (sprayed maize seedlings); format: in vivo; conditions: 144 h, 400 ppm spray on maize seedlings, 2nd instar larvae, 6 days, read-out: percentage reduction in the population (% activity)
Experimental: Maize seedlings are sprayed with an aqueous emulsion spray mixture comprising 400 ppm of active ingredient and, after the spray coating has dried on, populated with 10 larvae (2nd instar) of Diabrotica balteata and introduced into a plastic container. 6 days later, the percentage reduction in the population (% activity) is determined by comparing the number of dead larvae between the treated and untreated plants.

Myzus persicae = experiment: Systemic insecticide test for Myzus persicae; format: in vivo; conditions: roots of infected pea seedlings in 400 ppm spray mixture, 20°, 3 and 6 days, read-out: percentage reduction in the population (% activity)
Experimental: Pea seedlings are infected with Myzus persicae, and their roots are subsequently placed into a spray mixture comprising 400 ppm of active ingredient. The seedlings are then incubated at 20°. 3 and 6 days later, the percentage reduction in the population (% activity) is determined by comparing the number of dead aphids between the treated and untreated plants.

SMILES | melting point [°C] | inhibition at 400 ppm (Plutella xylostella) [%] | inhibition at 400 ppm (Spodoptera littoralis) [%] | reduction of treated population (activity) [1] | inhibition at 400 ppm (Heliothis virescens) [%] | inhibition at 400 ppm (Diabrotica balteata) [%] | inhibition at 400 ppm (Myzus persicae) [%]
CNC(=O)c1cc2[nH]cnc2c(Cl)c1NC(=O)c1cc(C(F)(F)F)nn1-c1ncccc1Cl | 190 to 192 | – | – | – | – | – | –
O=C(NCC1CC1)c1cc2nccnc2c(Cl)c1NC(=O)c1cc(C(F)(F)F)nn1-c1ncccc1Cl [Compound T1.1.14, 8-chloro-7-{[2-(3-chloro-pyridin-2-yl)-5-trifluoromethyl-2H-pyrazole-3-carbonyl]-amino}-quinoxaline-6-carboxylic acid cyclopropylmethyl-amide] | – | > 80 | > 80 | – | – | – | –
Cc1ccc2c(C)c(NC(=O)c3cc(C(F)(F)F)nn3-c3ncccc3Cl)c(C(=O)NC(C)C)cc2n1 [Compound T7.1.7] | – | > 80 | > 80 | over 80% | > 80 | – | –
CNC(=O)c1cc2nc(C(F)(F)F)ccc2c(C)c1NC(=O)c1cc(C(F)(F)F)nn1-c1ncccc1Cl [Compound T8.1.1, 6-{[2-(3-Chloro-pyridin-2-yl)-5-trifluoromethyl-2H-pyrazole-3-carbonyl]-amino}-5-methyl-2-trifluoromethyl-quinoline-7-carboxylic acid methyl amide] | 227 to 230 | > 80 | > 80 | – | – | > 80 | –
CNC(=O)c1cc2nc(C(F)(F)F)ccc2c(Cl)c1NC(=O)c1cc(C(F)(F)F)nn1-c1ncccc1Cl [Compound T8.1.2, 5-Chloro-6-{[2-(3-chloro-pyridin-2-yl)-5-trifluoromethyl-2H-pyrazole-3-carbonyl]-amino}-2-trifluoromethyl-quinoline-7-carboxylic acid methyl amide] | 233 to 237 | > 80 | > 80 | – | – | > 80 | –
CNC(=O)c1cc2nc(C(F)(F)F)ccc2c(OC)c1NC(=O)c1cc(C(F)(F)F)nn1-c1ncccc1Cl [Compound T8.1.121, 6-{[2-(3-Chloro-pyridin-2-yl)-5-trifluoromethyl-2H-pyrazole-3-carbonyl]-amino}-5-methoxy-2-trifluoromethyl-quinoline-7-carboxylic acid methyl amide] | – | > 80 | > 80 | – | – | – | –
CNC(=O)c1cc2nc(C(F)(F)F)ccc2cc1NC(=O)c1cc(Br)nn1-c1ncccc1Cl [Compound T8.1.153, 6-{[5-Bromo-2-(3-chloro-pyridin-2-yl)-2H-pyrazole-3-carbonyl]-amino}-2-trifluoromethyl-quinoline-7-carboxylic acid methyl amide] | 120 to 127 | > 80 | > 80 | – | – | – | –
Cc1nc2cc(C(=O)NC(C)C)c(NC(=O)c3cc(C(F)(F)F)nn3-c3ncccc3Cl)c(Cl)c2nc1C [Compound T19.1.8, 8-chloro-7-{[2-(3-chloro-pyridin-2-yl)-5-trifluoromethyl-2H-pyrazole-3-carbonyl]-amino}-2,3-dimethyl-quinoxaline-6-carboxylic acid isopropylamide] | – | – | > 80 | – | – | – | –
CNC(=O)c1cc2nsnc2c(Cl)c1NC(=O)c1cc(C(F)(F)F)nn1-c1ncccc1Cl [Compound T20.1.2, 7-chloro-6-{[2-(3-chloro-pyridin-2-yl)-5-trifluoromethyl-2H-pyrazole-3-carbonyl]-amino}-benzo[1,2,5]thiadiazole-5-carboxylic acid methylamide] | – | > 80 | > 80 | – | – | – | –
CC(C)NC(=O)c1cc2nsnc2c(Cl)c1NC(=O)c1cc(C(F)(F)F)nn1-c1ncccc1Cl [Compound T20.1.8, 7-chloro-6-{[2-(3-chloro-pyridin-2-yl)-5-trifluoromethyl-2H-pyrazole-3-carbonyl]-amino}-benzo[1,2,5]thiadiazole-5-carboxylic acid isopropylamide] | – | > 80 | > 80 | – | – | – | –
O=C(NCC1CC1)c1cc2nsnc2c(Cl)c1NC(=O)c1cc(C(F)(F)F)nn1-c1ncccc1Cl [Compound T20.1.14, 7-chloro-6-{[2-(3-chloro-pyridin-2-yl)-5-trifluoromethyl-2H-pyrazole-3-carbonyl]-amino}-benzo[1,2,5]thiadiazole-5-carboxylic acid cyclopropylmethyl-amide] | – | > 80 | > 80 | – | – | – | –
CC(C)NC(=O)c1cc2[nH]cnc2c(Cl)c1NC(=O)c1cc(C(F)(F)F)nn1-c1ncccc1Cl [Compound T21.1.8, 7-chloro-6-{[2-(3-chloro-pyridin-2-yl)-5-trifluoromethyl-2H-pyrazole-3-carbonyl]-amino}-3H-benzoimidazole-5-carboxylic acid isopropylamide] | 200 to 203 | > 80 | > 80 | – | – | – | –
O=C(NCC1CC1)c1cc2[nH]cnc2c(Cl)c1NC(=O)c1cc(C(F)(F)F)nn1-c1ncccc1Cl [Compound T21.1.14] | 198 to 201 | > 80 | – | – | – | – | –
CC(C)NC(=O)c1cc2ncn(C)c2c(Cl)c1NC(=O)c1cc(C(F)(F)F)nn1-c1ncccc1Cl [Compound T22.1.8, 7-chloro-6-{[2-(3-chloro-pyridin-2-yl)-5-trifluoromethyl-2H-pyrazole-3-carbonyl]-amino}-1-methyl-1H-benzoimidazole-5-carboxylic acid isopropylamide] | 150 to 155 | > 80 | > 80 | – | – | > 80 | –
Cn1cnc2cc(C(=O)NCC3CC3)c(NC(=O)c3cc(C(F)(F)F)nn3-c3ncccc3Cl)c(Cl)c21 [Compound T22.1.14] | 148 to 151 | > 80 | > 80 | – | – | – | –
Cc1nc2cc(C(=O)NC(C)C)c(NC(=O)c3cc(C(F)(F)F)nn3-c3ncccc3Cl)c(Cl)c2n1C [Compound T35.1.8, 7-chloro-6-{[2-(3-chloro-pyridin-2-yl)-5-trifluoromethyl-2H-pyrazole-3-carbonyl]-amino}-1,2-dimethyl-1H-benzoimidazole-5-carboxylic acid isopropylamide] | 248 to 250 | > 80 | > 80 | – | – | – | > 80
Cc1nc2cc(C(=O)NCC3CC3)c(NC(=O)c3cc(C(F)(F)F)nn3-c3ncccc3Cl)c(Cl)c2n1C [Compound T35.1.14] | 233 to 235 | – | > 80 | – | – | – | –
CC(C)NC(=O)c1cc2nc(C3CC3)n(C)c2c(Cl)c1NC(=O)c1cc(C(F)(F)F)nn1-c1ncccc1Cl [Compound T37.1.8, 7-chloro-6-{[2-(3-chloro-pyridin-2-yl)-5-trifluoromethyl-2H-pyrazole-3carbonyl]-amino}-2-cyclopropyl-1-methyl-1H-benzoimidazole-5-carboxylic acid isopropylamide] | 242 to 244 | > 80 | > 80 | – | – | – | –
Cn1c(C2CC2)nc2cc(C(=O)NCC3CC3)c(NC(=O)c3cc(C(F)(F)F)nn3-c3ncccc3Cl)c(Cl)c21 [Compound T37.1.14] | 233 to 235 | > 80 | > 80 | – | – | – | –
CSC1=NC2C=C(C(=O)NCC3CC3)C(NC(=O)c3cc(C(F)(F)F)nn3-c3ncccc3Cl)=C(Cl)C2S1 (centres unmarked) [Compound T94.1.14, 7-chloro-6-{[2-(3-chloro-pyridin-2-yl)-5-trifluoromethyl-2H-pyrazole-3-carbonyl]-amino}-2-methylsulfanyl-3a,7a-dihydro-benzothiazole-5-carboxylic acid cyclopropylmethyl-amide] | 221 to 223 | > 80 | > 80 | – | – | – | –
COC1=NC2C=C(C(=O)NCC3CC3)C(NC(=O)c3cc(C(F)(F)F)nn3-c3ncccc3Cl)=C(Cl)C2S1 (centres unmarked) [Compound T115.1.14, 7-chloro-6-{[2-(3-chloro-pyridin-2-yl)-5-trifluoromethyl-2H-pyrazole-3-carbonyl]-amino}-2-methoxy-3a,7a-dihydro-benzothiazole-5-carboxylic acid cyclopropylmethyl-amide] | – | > 80 | > 80 | – | – | – | –
